# Results as given in US5665739A, “Substituted benzoylguanidines, process and their preparation, their use as pharmaceutical or diagnostic, and pharmaceutical containing them” (priority 1992, dated 1997).
# Tests used:
# Na^+ /H^+ exchanger = molecular target: T1, Na^+ /H^+ exchanger (Oryctolagus cuniculus, UniProt P23791); experiment: Inhibition of the Na+/H+ exchanger of rabbit erythrocytes; assay type: cell-based; conditions: amiloride-sensitive Na+ influx, pH 7.4, 37° C.
# T1 construct: endogenous in cells; host or cells: rabbit erythrocytes (blood of cholesterol-fed White New Zealand rabbits)
# T1 sequence (P23791 whole entry): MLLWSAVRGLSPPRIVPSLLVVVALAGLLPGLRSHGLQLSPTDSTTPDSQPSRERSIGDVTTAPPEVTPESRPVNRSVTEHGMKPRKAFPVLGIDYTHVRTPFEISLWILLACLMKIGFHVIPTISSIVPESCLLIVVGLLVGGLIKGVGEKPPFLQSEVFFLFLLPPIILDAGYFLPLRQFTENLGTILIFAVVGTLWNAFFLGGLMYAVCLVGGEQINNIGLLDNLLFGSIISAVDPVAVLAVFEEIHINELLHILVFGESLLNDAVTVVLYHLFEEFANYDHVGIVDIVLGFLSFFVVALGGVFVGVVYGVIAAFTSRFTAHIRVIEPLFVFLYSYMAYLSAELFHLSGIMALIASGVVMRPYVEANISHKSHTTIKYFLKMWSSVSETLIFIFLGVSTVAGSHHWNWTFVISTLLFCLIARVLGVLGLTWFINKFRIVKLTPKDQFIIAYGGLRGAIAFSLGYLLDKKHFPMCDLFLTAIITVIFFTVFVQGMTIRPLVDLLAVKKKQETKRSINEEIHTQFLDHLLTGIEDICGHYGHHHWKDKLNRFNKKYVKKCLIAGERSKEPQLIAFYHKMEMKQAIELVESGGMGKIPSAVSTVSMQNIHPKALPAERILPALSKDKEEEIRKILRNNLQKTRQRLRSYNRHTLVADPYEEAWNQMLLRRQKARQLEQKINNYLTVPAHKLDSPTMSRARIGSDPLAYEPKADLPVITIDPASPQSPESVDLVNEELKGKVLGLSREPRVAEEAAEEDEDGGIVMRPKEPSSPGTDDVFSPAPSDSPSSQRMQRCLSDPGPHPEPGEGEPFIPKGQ
# Text: Inhibition of the Na^+ /H^+ exchanger of rabbit erythrocytes
# White New Zealand rabbits (Ivanovas) were given a standard diet containing 2% of cholesterol for six weeks so as to activate the Na^+ /H^+ exchange in order to be able to determine the Na^+ influx into the erythrocytes via Na^+ /H^+ exchange by means of flame photometry. The blood was sampled from the auricular artery and made incoagulable by addition of 25 IE of potassium heparin. Part of each sample was used for a repeated hematocrit measurement by centrifuging. 100 μl aliquots were used for measuring the initial Na^+ content of the erythrocytes.
# To determine the amiloride-sensitive sodium influx, 100 μl of each blood sample were incubated in in each case 5 ml of a hyperosmolaric salt/sucrose medium (mmol/l: 140 NaCl, 3 KCl, 150 sucrose, 0.1 ouabain, 20 tris-hydroxymethylaminomethane) at pH 7.4 and 37° C. […] The intracellular sodium content was determined by flame photometry.
# The Na^+ net influx was calculated from the difference between the initial sodium values and the sodium content of the erythrocytes after incubation. The sodium influx which can be inhibited by amiloride was determined from the difference of the sodium content of the erythrocytes after incubation with and without amiloride 3×10^-4 mol/l. […]
# [1] = test system: artificially induced ventricular fibrillation; conditions: rats' hearts; Eur. Heart J. 9 (suppl. 1): 167 (1988); cited from earlier work
# [2] = in vivo; cited from earlier work
Structure (SMILES),IC50 (Na^+ /H^+ exchanger) [nM],suppression of artificially induced ventricular fibrillation [1],hypotensive and saluretic side effects [2]
"NC(N)=NC(=O)c1ccc(Oc2cccnc2)c(C(F)(F)F)c1 [Example 16, 4-(3-Pyridyloxy)-3-trifluoromethylbenzoylguanidine]",30,–,–
"NC(N)=NC(=O)c1ccc(Oc2ccc3ncccc3c2)c(C(F)(F)F)c1 [Example 17, 4-(6-Quinolinoxy)-3-trifluoromethylbenzoylguanidine]",40,–,–
"NC(N)=NC(=O)c1nc(Cl)c(N)nc1N [amiloride, Amiloride]",–,suppressed completely,accompanied by a hypotensive and saluretic activity
"CCN(c1nc(N)c(C(=O)N=C(N)N)nc1Cl)C(C)C [ethylisopropylamiloride, Ethylisopropylamiloride]",–,even more potent than amiloride itself,–
